Test results as given in patent publication US20260306526A1, “COMBINATION THERAPY FOR BACTERIAL INFECTIONS COMPRISING ZINC-CHELATOR, BETA-LACTAM ANTIBIOTIC AND SERINE BETA-LACTAMASE INHIBITOR” (priority 2023, published 2026).
Where “and” joins values, the source holds several entries; their conditions need not be identical. Equal values may be shown once.

Experiments:
[1] = tested on: Klebsiella pneumoniae Kpn St147; experiment: MIC determination, checkerboard broth microdilution, meropenem + zinc chelator + avibactam (Example 1); format: cell-based
Protocol: Antimicrobial susceptibility testing (AST) by broth microdilution was performed according to The European Committee on Antimicrobial Susceptibility Testing.
Sensititre™ FINMER meropenem 64-0.03 μg/ml plates (Thermo Fischer Diagnostics custom plates; YFINMER) were modified by adding avibactam to rows 3 to 8 in concentrations of 64, 16, 8, 4, 1 and 0.25 μg/ml, respectively. The zinc chelator was added to the wells of the plate, where applicable. Three plates were made per experiment, one without the zinc chelator (plate 1), one with 16 μg/ml of the zinc chelator (plate 2) and one with 32 μg/ml of the zinc chelator (plate 3). The first row in all plates was used as a positive control for meropenem only, and the second row included the zinc chelator in addition to meropenem (no avibactam added to rows 1 or 2). The zinc chelator was added at the indicated concentration to rows 3-8 of plates 2 and 3.
The effect of the combination of zinc chelator/MEM/avibactam was tested on a clinically isolated Klebsiella pneumoniae Kpn St147 actively constitutionally expressing the two resistance mechanisms NDM-1 and KPC-2 simultaneously. As a negative control, bacteria+meropenem was tested alone. As a positive control, bacteria+MEM+zinc chelator was used. In Table 1 and 2, concentrations (μg/ml) of meropenem are given in the top row left to right and avibactam concentrations (μg/ml) are given top to bottom in column 1. […] A blank cell indicates no growth.
The fractional inhibitory concentration (FIC) is defined as the concentration that kills when used in combination with another agent divided by the concentration that has the same effect when used alone. The FIC index (FICI) for the combination of two agents is the sum of their individual FIC values. […]

[2] = tested on: Klebsiella pneumoniae K66-45; experiment: MIC determination, fixed ratio of sBLI to antibiotic (Examples 2-4); format: cell-based; settings: Example 2; with MEM and AVI (fixed ratio); NDM-1; caMHB, 29.4 μM Zn2+
Protocol: Antimicrobial susceptibility testing (AST) by broth microdilution (MIC determination) was performed according to The European Committee on Antimicrobial Susceptibility Testing (EUCAST) guidelines (see Reading guide for broth microdilution Version 5.0, 2024: https://www.eucast.org).
Sterile clear round bottom polystyrene (non-treated) 96-well microplates (Corning 3788) were used for making serial two-fold dilutions of the antibiotic and the sBLI in cation-adjusted Mueller Hinton II broth (caMHB; Thermo Scientific, T3462, containing 29.4 μM Zn^2+), across the columns of the microtiter plate (256-0.06 μg/mL; columns 1-12). The checkerboard plates were all made by keeping the sBLI at a fixed ratio relative to antibiotic (absolute concentrations of each, in μg/mL) to all wells containing sample in each plate. Additionally, a set of samples was included in each test plate, where the zinc chelator was added, at various fixed concentrations, of 16 μg/mL, 8 μg/mL and/or 4 μg/mL (as specified in each Example). All sample wells contained growth medium (caMHB), and inoculated bacteria at a final inoculum between 3-7×10^5 CFU/mL. […]

CN(C[C@H](O)[C@@H](O)[C@H](O)[C@H](O)CO)C(=O)c1ccc(CN(Cc2ccccn2)Cc2ccccn2)nc1 [zinc chelator]
FICI Zinc Chelator ([1]; zinc chelator 16 μg/mL, MEM/avibactam 0.5/0.25 (r9), 0.25/1 (r10), 0.25/4 (r11), 0.06/8 (r12) μg/mL): 0.008
FICI Zinc Chelator ([1]; zinc chelator 32 μg/mL, MEM/avibactam 0.5/0.25 (r13), 0.12/1 (r14), 0.06/4 (r15), 0.06/8 (r16) μg/mL): 0.016
amplification of the inhibitory effect ([1]; zinc chelator at 16 μg/ml with MEM + avibactam): about 64 fold
Synergy with the zinc chelator observed at concentration [2]: 16 µg/mL and 8 µg/mL
